# In patent US10526311B2 (ASTEX THERAPEUTICS LIMITED, priority 2015, dated 2020):
# pIC50: −log10 of the molar value. Where two headings read alike, the source gives them in different places.
# Key:
# [1] = biological target: MDM2-p53 interaction (in vitro translated MDM2, biotinylated IP3 peptide) (Homo sapiens, UniProt Q00987); test: MDM2-p53 interaction 96-well plate binding assay (ELISA); conditions: for inhibition at 0.03 µM: @ 0.030 μM
# SJSA-1 = test: Protocol B: SJSA-1 CellTiter-Glo cell viability; conditions: for pIC50: read-out: SJSA1 IC50 (Protocol B), SJSA-1 cells, CellTiter-Glo, 72 hrs; for SJSA1 (Protocol B) % at concentration: SJSA-1, Protocol B, at 10 μM
# Protocol: Protocol B: SJSA-1 and SN40R2 Assays
# The CellTiter-Glo® Luminescent Cell Viability Assay is a homogeneous method to determine the number of viable cells in culture based on quantitation of the ATP present, which signals the presence of metabolically active cells. […] 100 μl of CTG reagent (Promega #G7573) was added to all wells and luminescence was measured on the topcount. The EC50 values were determined from a sigmoidal 4 parameter curve fit using XLfit in conjunction with Activity Base (IDBS; Guildford, Surrey, UK).
# [2] = tested on: SJSA-1 (MDM2 amplified, p53 wild-type osteosarcoma); test: Protocol A: SJSA-1 growth inhibition (SRB); conditions: for IC50: Homo sapiens, SJSA-1, 72 h, read-out: SJSA-1 IC50 (μM) (Protocol A), SJSA-1, Protocol A (SRB), 72 hrs
# Protocol: Protocol A: SJSA-1 and SN40R2 Assays
# Following incubation with the SRB dye at room temperature for 30 min, the plates were washed with 1% acetic acid and left to dry. […] The GI50 was calculated by non-linear regression analysis of the data using Prism v4.0 statistical software.
# [3] = @ 0.0010 μM, read-out: MDM2 % @ concentration
# [4] = Homo sapiens, SJSA-1, 72 h, read-out: SJSA1 IC50 (μM) (Protocol B), SJSA-1, Protocol B (CellTiter-Glo), 72 hrs
# [5] = @ 0.10 μM, read-out: MDM2 % @ concentration
# [6] = read-out: MDM2 % @ concentration
# [7] = @ 0.30 μM, read-out: MDM2 % @ concentration
# Chain of MDM2-p53 interaction (in vitro translated MDM2, biotinylated IP3 peptide) (Q00987 whole entry): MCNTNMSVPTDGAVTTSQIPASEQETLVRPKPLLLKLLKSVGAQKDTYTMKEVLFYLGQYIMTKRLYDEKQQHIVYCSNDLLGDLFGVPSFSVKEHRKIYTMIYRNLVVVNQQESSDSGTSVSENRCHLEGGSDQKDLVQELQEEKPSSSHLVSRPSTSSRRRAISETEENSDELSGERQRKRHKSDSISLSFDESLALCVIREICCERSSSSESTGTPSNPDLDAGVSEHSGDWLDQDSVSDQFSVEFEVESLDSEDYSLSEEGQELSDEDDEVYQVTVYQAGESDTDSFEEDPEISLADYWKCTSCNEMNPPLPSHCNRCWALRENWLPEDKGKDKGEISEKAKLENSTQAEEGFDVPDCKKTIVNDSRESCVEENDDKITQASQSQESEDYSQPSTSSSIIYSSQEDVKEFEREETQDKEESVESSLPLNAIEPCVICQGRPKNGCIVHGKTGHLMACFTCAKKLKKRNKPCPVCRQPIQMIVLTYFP
smiles,measurement,setting,value
"CCC(O)(c1cc(F)c2c(c1)C(=O)N(Cc1ncc(C#N)cn1)[C@@]2(O[C@H]1CCOC1)c1ccc(Cl)cc1)[C@H]1CC[C@H](O)CC1 (stereo partly drawn) [Example 503, 2-{[(1R)-1-(4-chlorophenyl)-7-fluoro-5-{1-hydroxy-1-[trans-4-hydroxycyclohexyl]propyl}-3-oxo-1-[(3S)-oxolan-3-yloxy]-2,3-dihydro-1H-isoindol-2-yl]methyl}pyrimidine-5-carbonitrile]",inhibition at 0.001 µM,[1]; [3],87%
same,IC50,SJSA-1; [4],0.011 µM
"CC(O)(CO)c1cc(F)c2c(c1)C(=O)N(Cc1ccc(Cl)cn1)[C@@]2(OCC1(CO)CC1)c1ccc(Cl)cc1 (stereo partly drawn) [Example 17, (3R)-3-(4-Chlorophenyl)-2-[(5-chloropyridin-2-yl)methyl]-6-(1,2-dihydroxypropan-2-yl)-4-fluoro-3-({1-[hydroxy(^2H2)methyl]cyclopropyl}(^2H2)methoxy)-2,3-dihydro-1H-isoindol-1-one]",pIC50,"[2]; read-out: SJSA-1 IC50 (Protocol A), SJSA-1 cells, SRB, 72 hrs",7.00
"CCC(O)(c1cc(F)c2c(c1)C(=O)N(Cc1ncc(Cl)cn1)[C@@]2(OCC1(CO)CC1)c1ccc(Cl)cc1)c1cn(C)cn1 (single isomer, unassigned) [Example 477]",IC50,[2],0.013 µM
"CCC(O)(c1cc(F)c2c(c1)C(=O)N(Cc1ncc(C#N)cn1)[C@@]2(OCC1(C#N)CC1)c1ccc(Cl)cc1)c1cn(C)cn1 (single isomer, unassigned) [Example 463]",inhibition at 0.1 µM,[1]; [5],73%
"Cn1cc(C(C)(O)c2cc(F)c3c(c2)C(=O)N(Cc2ccc(Cl)c[n+]2[O-])[C@@]3(OCC2(CO)CC2)c2ccc(Cl)cc2)cn1 (single isomer, unassigned) [Example 407]",inhibition at 0.001 µM,[1]; [3],62%
same,pIC50,"SJSA-1; Homo sapiens, SJSA-1, 72 h",6.24
"CC(C)(O)c1cc(F)c2c(c1)C(=O)N(Cc1ccc(Cl)cn1)[C@@]2(OCC1(CNCCO)CC1)c1ccc(Cl)cc1 [Example 326, (3R)-3-(4-chlorophenyl)-2-[(5-chloropyridin-2-yl)methyl]-4-fluoro-3-[(1-{[(2-hydroxyethyl)amino]methyl}cyclopropyl)methoxy]-6-(2-hydroxypropan-2-yl)-2,3-dihydro-1H-isoindol-1-one]",inhibition at 0.03 µM,[1]; [6],50%
same,pIC50,"SJSA-1; Homo sapiens, SJSA-1, 72 h",5.70
"COc1ccc(CN2C(=O)c3cc(C(C)(O)c4cnn(C)c4)cc(F)c3[C@]2(OCC2(O)CC2)c2ccc(Cl)cc2)nc1 (stereo partly drawn) [Example 228, (3R)-3-(4-chlorophenyl)-4-fluoro-6-[1-hydroxy-1-(1-methyl-1H-pyrazol-4-yl)ethyl]-3-[(1-hydroxycyclopropyl)methoxy]-2-[(5-methoxypyridin-2-yl)methyl]-2,3-dihydro-1H-isoindol-1-one]",inhibition at 0.01 µM,"[1]; @ 0.010 μM, read-out: MDM2 % @ concentration",61%
"CCC(O)(c1cc(F)c2c(c1)C(=O)N(Cc1ccc(C#N)cn1)[C@@]2(O[C@H]1CCOC1)c1ccc(Cl)cc1)C1(F)CCOCC1 (single isomer, unassigned) [Example 445]",MDM2 % @ concentration,[1]; @ 0.0010 μM,43% @ 0.0010
same,inhibition at 0.1 µM,"[1]; read-out: MDM2 % @ concentration, @ 0.10 μM",56%
"CO[C@]1(c2ccc(Cl)cc2)c2ccc(C(C)(O)CN3CCNC3=O)cc2C(=O)N1Cc1ccc(Cl)cn1 (single isomer, unassigned) [Example 158]",inhibition at 0.1 µM,[1]; [5],57%
"CCC(O)(c1cc(F)c2c(c1)C(=O)N(Cc1ncc(Cl)cn1)[C@@]2(O[C@H]1CCOC1)c1ccc(Cl)cc1)c1cn(C)cn1 (single isomer, unassigned) [Example 475]",IC50,[2],0.028 µM
"Cn1cc(C(C)(O)c2cc(F)c3c(c2)C(=O)N(Cc2ncc(F)cc2F)[C@@]3(OCC2(O)CC2)c2ccc(Cl)cc2)cn1 (single isomer, unassigned) [Example 351]",inhibition at 0.1 µM,[1]; [5],25%
"CCC(O)(c1cc(F)c2c(c1)C(=O)N(Cc1ccc(C#N)cn1)[C@@]2(O[C@H]1CCOC1)c1ccc(Cl)cc1)c1cnn(C)c1 (single isomer, unassigned) [Example 359]",inhibition at 0.1 µM,[1]; [5],50%
"CO[C@]1(c2ccc(Cl)cc2)c2ccc(C(C)(O)CN3CCNC3=O)cc2C(=O)N1Cc1ccc(Cl)cn1 (single isomer, unassigned) [Example 157]",inhibition at 0.3 µM,[1]; [7],39%
"CCC(O)(c1cc(F)c2c(c1)C(=O)N(Cc1ncc(Cl)cn1)[C@@]2(OCCO)c1ccc(Cl)cc1)[C@H]1CC[C@H](O)CC1 (single isomer, unassigned) [Example 517]",IC50,[2],0.019 µM
"CCCC(O)(c1cc(F)c2c(c1)C(=O)N(Cc1ccc(C#N)cn1)[C@@]2(O[C@H]1CCOC1)c1ccc(Cl)cc1)c1cn(C)cn1 (single isomer, unassigned) [Example 473]",inhibition at 0.1 µM,[1]; [5],44%
"C[C@H](c1ccc(Cl)cn1)N1C(=O)c2cc(C(C)(C)O)cc(F)c2[C@]1(OCC1(C(N)=O)CC1)c1ccc(Cl)cc1 [Example 71, 1-({[(1R)-1-(4-chlorophenyl)-2-[(1R)-1-(5-chloropyridin-2-yl)ethyl]-7-fluoro-5-(2-hydroxypropan-2-yl)-3-oxo-2,3-dihydro-1H-isoindol-1-yl]oxy}methyl)cyclopropane-1-carboxamide]",pIC50,[1],7.09
"CCC(O)(c1cc(F)c2c(c1)C(=O)N(Cc1ccc(C#N)cn1)[C@@]2(OC[C@@H](C)O)c1ccc(Cl)cc1)C1(F)CCOCC1 (single isomer, unassigned) [Example 498]",inhibition at 0.1 µM,[1]; [5],32%
same,SJSA1 (Protocol B) % at concentration,SJSA-1,96% at 10
"CO[C@]1(c2ccc(Cl)cc2)c2c(F)cc(C(C)(O)C3CCN(C(=O)CO)CC3)cc2C(=O)N1Cc1ccc(Cl)cn1 (single isomer, unassigned) [Example 296]",inhibition at 0.001 µM,[1]; [3],62%
"CCC(O)(c1cc(F)c2c(c1)C(=O)N(Cc1ncc(Cl)cc1O)[C@@]2(O[C@H]1C[C@@H](O)C1)c1ccc(Cl)cc1)c1cn(C)cn1 (single isomer, unassigned) [Example 488]",inhibition at 0.1 µM,[1]; [5],56%
"CCC(O)(c1cc(F)c2c(c1)C(=O)N(Cc1ccc(C#N)cn1)[C@@]2(OCCOC)c1ccc(Cl)cc1)c1cn(C)cn1 (single isomer, unassigned) [Example 429]",inhibition at 0.1 µM,[1]; [5],65%
"CCC(O)(c1cc(F)c2c(c1)C(=O)N(Cc1ccc(C#N)cn1)[C@@]2(OCCO)c1ccc(Cl)cc1)C1(F)CCOCC1 (single isomer, unassigned) [Example 500]",inhibition at 0.1 µM,[1]; [5],21%
same,SJSA1 (Protocol B) % at concentration,SJSA-1,16% at 10
"CCC(O)(c1cc(F)c2c(c1)C(=O)N(Cc1ccc(C#N)cn1)[C@@]2(O[C@H]1C[C@@H](O)C1)c1ccc(Cl)cc1)[C@H]1CC[C@H](O)CC1 (single isomer, unassigned) [Example 520]",inhibition at 0.03 µM,[1]; [6],32%
same,IC50,"SJSA-1; read-out: SJSA1 IC50 (μM) (Protocol B), SJSA-1, Protocol B (CellTiter-Glo), 72 hrs",3.9 µM
"CO[C@]1(c2ccc(Cl)cc2)c2ccc(C(C)(O)CN3CC(=O)NC3=O)cc2C(=O)N1Cc1ccc(Cl)cn1 (single isomer, unassigned) [Example 330]",MDM2 % @ concentration,[1]; @ 0.30 μM,36% @ 0.30
"CO[C@]1(c2ccc(Cl)cc2)c2c(F)cc(C(C)(O)c3cnn(C4CN(C(=O)OC(C)(C)C)C4)c3)cc2C(=O)N1Cc1ccc(Cl)cn1 (single isomer, unassigned) [Example 457]",inhibition at 0.3 µM,[1]; [7],53%
"CO[C@]1(c2ccc(Cl)cc2)c2ccc(C(C)(O)CN3CCOCC3=O)cc2C(=O)N1Cc1ccc(Cl)cn1 (single isomer, unassigned) [Example 327]",inhibition at 0.3 µM,[1]; [7],42%
"Cn1cc(C(C)(O)c2cc(F)c3c(c2)C(=O)N(Cc2ncc(F)cc2F)[C@@]3(OCC2(O)CC2)c2ccc(Cl)cc2)cn1 (single isomer, unassigned) [Example 350]",inhibition at 0.03 µM,[1]; [6],54%
"CN1CCC(C(C)(O)c2cc(F)c3c(c2)C(=O)N(Cc2ccc(Cl)cn2)[C@@]3(OCC2(CO)CC2)c2ccc(Cl)cc2)CC1 (single isomer, unassigned) [Example 555]",inhibition at 0.001 µM,[1]; [3],55%
same,IC50,SJSA-1; [4],0.079 µM
